What was measured:
Assay in all cases: biochemical
Parameters in all cases: Eurofins recombinant human kinase profiling, remaining kinase activity as % of control, 10 uM ATP
Settings in all cases: ATP 10 uM; read-out: %Ctrl@10 μM
[1] = molecular target: T1, PKCι(h) (Homo sapiens, UniProt P41743)
T1 construct: gene PRKCI
Outline: (§1)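 Recombinant human kinases, 401 in total, screened using an outsourced kinase profiling assay.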

[2] = molecular target: T2, MRCKα(h) (Homo sapiens, UniProt Q5VT25)
T2 construct: gene CDC42BPA
Outline: as §1

[3] = molecular target: T3, MST2(h) (Homo sapiens, UniProt Q13188)
T3 construct: gene STK3
Outline: as §1

[4] = molecular target: T4, CK1γ1(h) (Homo sapiens, UniProt Q9HCP0)
T4 construct: gene CSNK1G1
Outline: as §1

[5] = molecular target: PAK3(h) (Homo sapiens, UniProt O75914)
PAK3(h), sequence (O75914 whole entry): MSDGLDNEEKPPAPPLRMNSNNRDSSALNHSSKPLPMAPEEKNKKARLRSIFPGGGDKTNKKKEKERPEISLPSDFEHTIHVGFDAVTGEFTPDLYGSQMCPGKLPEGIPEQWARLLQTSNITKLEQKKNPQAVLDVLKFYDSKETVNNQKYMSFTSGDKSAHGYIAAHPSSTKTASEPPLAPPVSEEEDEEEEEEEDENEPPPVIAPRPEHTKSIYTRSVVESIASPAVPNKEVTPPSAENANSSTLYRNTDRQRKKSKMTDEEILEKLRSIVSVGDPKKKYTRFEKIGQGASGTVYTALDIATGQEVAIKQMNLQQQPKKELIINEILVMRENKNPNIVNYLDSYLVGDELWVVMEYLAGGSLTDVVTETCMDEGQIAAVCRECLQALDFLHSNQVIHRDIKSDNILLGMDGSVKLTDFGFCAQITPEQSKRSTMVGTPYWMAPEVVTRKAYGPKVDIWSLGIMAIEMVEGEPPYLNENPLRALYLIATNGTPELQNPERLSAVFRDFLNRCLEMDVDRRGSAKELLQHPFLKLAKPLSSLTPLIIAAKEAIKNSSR
Outline: as §1

[6] = molecular target: T5, MEKK3(h) (Homo sapiens, UniProt Q99759)
T5 construct: gene MAP3K3
T5 sequence (Q99759 whole entry): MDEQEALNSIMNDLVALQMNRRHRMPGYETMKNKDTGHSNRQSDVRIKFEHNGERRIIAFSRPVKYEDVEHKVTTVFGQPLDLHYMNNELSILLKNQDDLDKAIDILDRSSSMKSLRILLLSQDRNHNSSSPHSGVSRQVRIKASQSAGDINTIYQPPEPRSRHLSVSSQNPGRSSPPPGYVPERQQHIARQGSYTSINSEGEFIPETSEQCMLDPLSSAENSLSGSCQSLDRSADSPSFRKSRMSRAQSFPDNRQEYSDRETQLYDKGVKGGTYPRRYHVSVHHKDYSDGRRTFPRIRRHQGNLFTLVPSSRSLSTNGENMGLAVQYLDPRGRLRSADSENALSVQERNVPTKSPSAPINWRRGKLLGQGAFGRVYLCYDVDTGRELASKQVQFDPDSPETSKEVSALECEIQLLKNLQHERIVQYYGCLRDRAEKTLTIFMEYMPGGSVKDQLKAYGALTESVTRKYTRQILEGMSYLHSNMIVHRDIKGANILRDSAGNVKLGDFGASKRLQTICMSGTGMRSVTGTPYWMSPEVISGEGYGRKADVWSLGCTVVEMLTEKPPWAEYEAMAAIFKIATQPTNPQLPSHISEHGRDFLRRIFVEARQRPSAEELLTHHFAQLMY
Outline: as §1

[7] = molecular target: Bmx(h) (Homo sapiens, UniProt P51813)
Outline: as §1

[8] = molecular target: T6, PRAK(h) (Homo sapiens, UniProt Q8IW41)
T6 construct: gene MAPKAPK5
T6 sequence (Q8IW41 whole entry): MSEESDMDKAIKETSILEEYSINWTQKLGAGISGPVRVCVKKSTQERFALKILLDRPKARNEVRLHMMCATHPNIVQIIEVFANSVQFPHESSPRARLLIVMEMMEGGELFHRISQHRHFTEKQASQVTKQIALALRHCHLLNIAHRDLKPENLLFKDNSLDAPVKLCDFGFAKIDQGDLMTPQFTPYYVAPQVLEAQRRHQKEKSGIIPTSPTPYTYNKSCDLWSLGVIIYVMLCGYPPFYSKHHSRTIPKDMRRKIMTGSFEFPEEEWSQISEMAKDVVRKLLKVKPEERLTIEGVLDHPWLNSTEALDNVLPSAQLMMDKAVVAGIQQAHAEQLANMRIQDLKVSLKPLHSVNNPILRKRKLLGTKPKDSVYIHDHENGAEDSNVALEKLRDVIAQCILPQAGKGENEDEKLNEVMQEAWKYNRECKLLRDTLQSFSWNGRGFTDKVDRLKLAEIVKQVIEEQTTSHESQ
Outline: as §1

[9] = molecular target: T7, MLK1(h) (Homo sapiens, UniProt P80192)
T7 construct: gene MAP3K9
Outline: as §1

[10] = molecular target: T8, MSK1(h) (Homo sapiens, UniProt O75582)
T8 construct: gene RPS6KA5
Outline: as §1

[11] = molecular target: TGFBR1(h) (Homo sapiens, UniProt P36897)
Outline: as §1

[12] = molecular target: T9, ChaK1(h) (Homo sapiens, UniProt Q96QT4)
T9 construct: gene TRPM7
Outline: as §1

[13] = molecular target: T10, Tie2 (h) (Homo sapiens, UniProt Q02763)
T10 construct: gene TEK
Outline: as §1

[14] = molecular target: TTBK2(h) (Homo sapiens, UniProt Q6IQ55)
Outline: as §1

[15] = molecular target: T11, TAO1(h) (Homo sapiens, UniProt Q7L7X3)
T11 construct: gene TAOK1
T11 sequence (Q7L7X3 whole entry): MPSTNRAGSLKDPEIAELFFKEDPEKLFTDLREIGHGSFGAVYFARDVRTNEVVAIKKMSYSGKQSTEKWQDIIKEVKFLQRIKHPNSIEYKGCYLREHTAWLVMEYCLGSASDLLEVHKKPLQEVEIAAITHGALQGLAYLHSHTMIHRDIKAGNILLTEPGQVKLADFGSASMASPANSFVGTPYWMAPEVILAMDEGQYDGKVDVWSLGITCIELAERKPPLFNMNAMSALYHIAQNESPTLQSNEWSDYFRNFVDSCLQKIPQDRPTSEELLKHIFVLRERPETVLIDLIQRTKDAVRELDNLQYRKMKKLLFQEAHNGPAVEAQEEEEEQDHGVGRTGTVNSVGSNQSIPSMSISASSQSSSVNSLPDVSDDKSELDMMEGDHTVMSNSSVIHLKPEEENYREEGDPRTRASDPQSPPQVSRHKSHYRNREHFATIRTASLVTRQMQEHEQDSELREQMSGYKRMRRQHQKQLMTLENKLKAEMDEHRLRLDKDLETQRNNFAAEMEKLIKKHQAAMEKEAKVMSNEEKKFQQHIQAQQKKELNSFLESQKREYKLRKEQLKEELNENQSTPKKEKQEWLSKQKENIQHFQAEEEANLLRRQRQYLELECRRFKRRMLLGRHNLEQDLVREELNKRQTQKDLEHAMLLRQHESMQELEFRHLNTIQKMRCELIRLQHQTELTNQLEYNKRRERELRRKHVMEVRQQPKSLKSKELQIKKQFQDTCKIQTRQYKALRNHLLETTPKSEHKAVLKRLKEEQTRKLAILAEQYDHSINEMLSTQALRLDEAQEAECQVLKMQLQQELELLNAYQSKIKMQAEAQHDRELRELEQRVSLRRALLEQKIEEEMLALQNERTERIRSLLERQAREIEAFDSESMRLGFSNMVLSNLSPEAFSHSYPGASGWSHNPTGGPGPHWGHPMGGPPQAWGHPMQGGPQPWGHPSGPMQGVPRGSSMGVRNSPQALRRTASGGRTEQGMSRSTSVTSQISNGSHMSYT
Outline: as §1

[16] = molecular target: SNRK(h) (Homo sapiens, UniProt Q9NRH2)
Outline: as §1

[17] = molecular target: T12, PKCμ(h) (Homo sapiens, UniProt Q15139)
T12 construct: gene PRKD1
Outline: as §1

[18] = molecular target: T13, Aurora-A(h) (Homo sapiens, UniProt O14965)
T13 construct: gene AURKA
T13 sequence (O14965 whole entry): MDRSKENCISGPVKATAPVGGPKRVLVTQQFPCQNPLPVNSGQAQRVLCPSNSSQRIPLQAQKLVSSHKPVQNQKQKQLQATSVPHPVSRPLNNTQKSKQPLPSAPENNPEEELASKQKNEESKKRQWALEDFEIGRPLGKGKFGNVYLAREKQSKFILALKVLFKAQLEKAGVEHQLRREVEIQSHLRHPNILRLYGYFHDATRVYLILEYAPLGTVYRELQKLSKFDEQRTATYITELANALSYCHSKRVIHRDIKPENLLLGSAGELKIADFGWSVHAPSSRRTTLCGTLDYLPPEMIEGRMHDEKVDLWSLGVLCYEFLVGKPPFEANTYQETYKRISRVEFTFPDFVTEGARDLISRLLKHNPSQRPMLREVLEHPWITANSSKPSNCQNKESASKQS
Outline: as §1

[19] = molecular target: FGFR1(V561M)(h) (Homo sapiens, UniProt P11362, V561M)
FGFR1(V561M)(h), sequence (P11362 whole entry V561M): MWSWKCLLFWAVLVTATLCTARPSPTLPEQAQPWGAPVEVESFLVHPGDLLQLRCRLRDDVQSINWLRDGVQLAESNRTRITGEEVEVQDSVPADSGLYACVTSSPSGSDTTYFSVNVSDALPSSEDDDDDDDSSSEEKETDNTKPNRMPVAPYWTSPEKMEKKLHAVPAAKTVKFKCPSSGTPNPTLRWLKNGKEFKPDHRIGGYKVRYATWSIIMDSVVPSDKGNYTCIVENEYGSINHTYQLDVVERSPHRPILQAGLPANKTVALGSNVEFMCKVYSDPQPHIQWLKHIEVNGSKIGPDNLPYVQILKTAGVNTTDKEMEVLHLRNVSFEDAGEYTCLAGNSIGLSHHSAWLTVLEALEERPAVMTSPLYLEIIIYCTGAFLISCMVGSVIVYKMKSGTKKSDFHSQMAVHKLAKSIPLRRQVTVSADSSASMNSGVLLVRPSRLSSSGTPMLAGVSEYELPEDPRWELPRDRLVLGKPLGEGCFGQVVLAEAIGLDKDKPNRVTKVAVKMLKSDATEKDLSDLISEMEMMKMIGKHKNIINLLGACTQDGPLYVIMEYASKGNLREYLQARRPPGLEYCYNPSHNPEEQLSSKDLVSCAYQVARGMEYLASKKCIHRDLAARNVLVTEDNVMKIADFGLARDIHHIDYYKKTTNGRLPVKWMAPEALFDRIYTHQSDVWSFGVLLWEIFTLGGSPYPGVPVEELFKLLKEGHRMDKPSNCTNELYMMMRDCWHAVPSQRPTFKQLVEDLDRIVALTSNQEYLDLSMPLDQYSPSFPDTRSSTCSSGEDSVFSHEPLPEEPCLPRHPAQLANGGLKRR
Outline: as §1

[20] = molecular target: DAPK1(h) (Homo sapiens, UniProt P53355)
Outline: as §1

[21] = molecular target: FGFR2(h) (Homo sapiens, UniProt P21802)
Outline: as §1

[22] = molecular target: T14, Pim-3(h) (Homo sapiens, UniProt Q86V86)
T14 construct: gene PIM3
Outline: as §1

[23] = molecular target: T15, Rsk4(h) (Homo sapiens, UniProt Q9UK32)
T15 construct: gene RPS6KA6
Outline: as §1

T1 sequence (P41743 whole entry): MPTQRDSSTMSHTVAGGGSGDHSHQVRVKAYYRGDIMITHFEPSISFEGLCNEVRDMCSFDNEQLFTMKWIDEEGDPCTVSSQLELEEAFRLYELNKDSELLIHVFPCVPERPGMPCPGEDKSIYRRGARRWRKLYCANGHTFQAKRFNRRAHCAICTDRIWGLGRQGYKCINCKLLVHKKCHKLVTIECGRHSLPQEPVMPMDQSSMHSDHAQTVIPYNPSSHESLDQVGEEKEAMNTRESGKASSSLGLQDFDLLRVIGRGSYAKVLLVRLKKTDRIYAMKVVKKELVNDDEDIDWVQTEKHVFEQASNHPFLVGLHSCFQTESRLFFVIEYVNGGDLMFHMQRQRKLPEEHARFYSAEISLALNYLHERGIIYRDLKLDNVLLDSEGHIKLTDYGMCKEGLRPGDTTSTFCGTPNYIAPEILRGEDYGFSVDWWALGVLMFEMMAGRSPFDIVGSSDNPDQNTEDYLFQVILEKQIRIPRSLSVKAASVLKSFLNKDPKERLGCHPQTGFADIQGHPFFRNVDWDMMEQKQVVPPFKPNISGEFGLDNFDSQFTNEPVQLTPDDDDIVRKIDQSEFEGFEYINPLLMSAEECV

Q: Which remaining activity at 10 µM [1] does the source give for `C1=C(c2nc(-c3cnn(C4CCNCC4)c3)cn3cc(-c4ccccc4)nc23)CCOC1` [YL-939] here?
A: 85%

Q: And the remaining activity at 10 µM [2]?
A: 92%

Q: What about the remaining activity at 10 µM [3] of the same compound?
A: 78%

Q: And the remaining activity at 10 µM [4]?
A: 112%

Q: What about the remaining activity at 10 µM [5] of the same compound?
A: 70%

Q: What about the remaining activity at 10 µM [6] of the same compound?
A: 108%

Q: And the remaining activity at 10 µM [7]?
A: 87%

Q: And the remaining activity at 10 µM [8]?
A: 144%

Q: What about the remaining activity at 10 µM [9] of the same compound?
A: 86%

Q: And the remaining activity at 10 µM [10]?
A: 79%

Q: What about the remaining activity at 10 µM [11] of the same compound?
A: 101%

Q: And the remaining activity at 10 µM [12]?
A: 92%

Q: What about the remaining activity at 10 µM [13] of the same compound?
A: 81%

Q: And the remaining activity at 10 µM [14]?
A: 87%

Q: And the remaining activity at 10 µM [15]?
A: 81%

Q: And the remaining activity at 10 µM [16]?
A: 100%

Q: What about the remaining activity at 10 µM [17] of the same compound?
A: 77%

Q: And the remaining activity at 10 µM [18]?
A: 111%

Q: What about the remaining activity at 10 µM [19] of the same compound?
A: 65%

Q: And the remaining activity at 10 µM [20]?
A: 82%

Q: And the remaining activity at 10 µM [21]?
A: 95%

Q: And the remaining activity at 10 µM [22]?
A: 103%

Q: What about the remaining activity at 10 µM [23] of the same compound?
A: 73%

Source: paper PMC9719519, “Non-classical ferroptosis inhibition by a small molecule targeting PHB2” (Nature Communications, 2022)
